US9579325B2, “Modulators of TNF-α signaling” (Genzyme Corporation, priority 2000, dated 2017)
Where two headings read alike, the source gives them in different places.

System: L929 cells
Experiment: TNF High Throughput Screen (TNF-α driven apoptosis assay)
Type: cell-based, mouse
Settings: human TNF-α + actinomycin D; for IC50: read-out: TNFα IC50; for inhibition at 1 µM: compound at 1 μM, read-out: TNFα % Inh. @ 1 μM
Text: Description of Table V: The results shown in Table V were obtained using the TNF-α assays performed as described in the protocols entitled “Method for TNF High Throughput Screen” and “Method for VCAM High Throughput Screen”, which are detailed below. These assays measure a cellular response to TNF-α stimulation, and the data published in the table are expressed as percentage inhibitions. Percentage inhibition is computed on a scale of 0 to 100% where 0 percent inhibition means the compound has no effect in the assay (the response is indistinguishable from TNF-α treatment alone), and 100% inhibition means that when the compound is present at the stated concentration, the response in the assay is the same as if TNF-α were not added. These two assays measure two different outcomes of TNF-α treatment, cell death and Vascular Cell Adhesion Molecule (VCAM) expression, and capture two of TNF-α's many biological effects. TNF-α induced apoptosis is a mechanism by which TNF-α production during immune/inflammatory responses can lead to direct cellular and tissue damage. TNF-α VCAM expression in endothelial cells is a response that allows leukocytes to leave the blood and enter a site of immune/inflammatory response. Both of these activities could lead to pathology in immune/inflammatory diseases. In the first column of the table, the percentage inhibition of the TNF-α driven apoptosis assay when the compounds are tested at 1 μM concentration is presented. The second column in the table lists the IC50 for the compound, a standard measure using a dilution series in the assay, and fitting a sigmoidal curve to the resulting dose-response curve. The IC50 is the concentration (derived analytically from the sigmoidal function) at which the compound would inhibit 50% of the response in the assay. The third and fourth column list the corresponding analysis for the TNF-α driven VCAM assay. In Table VI, data corresponding to the data in column 1 of Table V is shown, with human cells replacing the mouse cells used in the high throughput screen. […] As a consequence, the compounds will have use in treating more than one TNF-α mediated condition, and may be selected according to the manner in which the condition manifests. This corresponds to the use of these compounds in the treatment of human disease.
TNF High Throughput Screen.
• 1. Plate 4×10^4 L929 cells in 100 μl of complete EMEM in Costar 96 well plates in PM. • 2. The next day, pretreat with compound, inhibitor and control vehicle for 2 hours. • 3. After 2 hours pretreatment, add 10 μl 5 ng/ml human TNF-α and actinomycin D (40 μg/ml final concentration). • 4. Incubate overnight. • 5. In AM, remove supernatant. • 6. Wash on a plate washer (0.9% NaCl). • 7. Add 100 μl Crystal Violet 0.1% in 20% ETOH. • 8. Incubate at RT for 10 minutes. • 9. Wash on plate washer. • 10. Air dry wells at 37° C. • 11. Add 100 μl of methanol to each well. • 12. Shake plates on orbital shaker and read at 595 nm on plate reader. VCAM High Throughput Screen: Protocol: • 1. Plate Primary human umbilical vein endothelial cells at 1.8×10^4 cells/well in a 96-well tissue culture plate. • 2. Return Plates to 37° C. incubator for 48-72 hours before assay. • 3. On assay day, aspirate wells and add 1804, of endothelial growth cell medium (EGM) to each well. • 4. Add Compound to each well. • 5. Shake plates for 3 minutes. • 6. Incubate plate for 1 hour at 37° C. • 7. Add Tumor Necrosis Factor (TNF) at 1.0 ng/ml final concentration. • 8. Shake plates for 3 minutes. • 9. Incubate plate for 2 hours at 37° C. • 10. Remove plate from incubator and wash plate 3 times with phosphate buffered saline (PBS) using a plate washer. • 11. Add anti-VCAM antibody at 0.5 μg/ml final concentration. • 12. Incubate at 4° C. overnight. • 13. Wash 3 times with PBS on plate washer. • 14. Add goat anti-mouse horseradish peroxidase conjugate. • 15. Incubate at room temperature for one hour. • 16. Wash 3 times with PBS on plate washer. • 17. […]

Row | Structure (SMILES) | inhibition at 1 µM (Mus musculus) [%] | other results
1 | O=C(c1ccccc1)c1ccccc1C(=O)N(CCc1c[nH]cn1)[C@H](Cc1ccccc1)C(=O)NCC(c1ccccc1)c1ccccc1 [Compound 47, 2-Benzoyl-N-[(1′R)-1′(2,2′-diphenyl-ethylcarbamoyl)-2′-phenyl-ethyl]-N-[2-(1H-imidazol-4-yl)-ethyl]-benzamide] |  | IC50: 5.58 µM
2 | N#Cc1ccc(C(C(=O)NCC(c2ccccc2)c2ccccc2)N(CCc2c[nH]cn2)C(=O)c2ccccc2C(=O)c2ccccc2)cc1 (stereo not drawn) [Compound 51] |  | IC50 (Mus musculus): 3.56 µM
3 | O=C(c1ccccc1)c1ccccc1C(=O)N(CCc1c[nH]cn1)C(C(=O)NCC(c1ccccc1)c1ccccc1)c1ccc(-c2ccccc2)o1 (stereo not drawn) [Compound 52] |  | IC50 (Mus musculus): 3.49 µM
4 | N#Cc1cccc(C(C(=O)NCC(c2ccccc2)c2ccccc2)N(CCc2c[nH]cn2)C(=O)c2ccccc2COc2ccccc2)c1 (stereo not drawn) [Compound 53] |  | IC50 (Mus musculus): 7.13 µM
5 | N#Cc1cccc(C(C(=O)NCC(c2ccccc2)c2ccccc2)N(CCc2c[nH]cn2)C(=O)c2ccccc2C(=O)OCc2ccccc2)c1 (stereo not drawn) [Compound 55] |  | IC50 (Mus musculus): 7.64 µM
6 | CN(C)CCN(C(=O)c1ccccc1C(=O)c1ccccc1)C(C(=O)NCC(c1ccccc1)c1ccccc1)c1ccccc1 (stereo not drawn) [Compound 56] |  | IC50 (Mus musculus): 6.63 µM
7 | COc1ccc(Oc2cccc(C(C(=O)NCc3cc(OC)c(OC)c(OC)c3)N(C(=O)CC(c3ccccc3)c3ccccc3)c3ccccc3C(N)=O)c2)cc1 (stereo not drawn) [Compound 57] | 56 | 
8 | O=C(NCC(c1ccccc1)c1ccccc1)C(c1ccccc1)N(CCc1c[nH]cn1)C(=O)c1cccc2c1-c1ccccc1C2 (stereo not drawn) [Compound 58] | 50 | 
9 | N#Cc1cccc(C(C(=O)NCC(c2ccccc2)c2ccccc2)N(CCc2c[nH]cn2)C(=O)CCCCc2ccccc2)c1 (stereo not drawn) [Compound 60] | 50 | 
10 | O=C(c1ccc(Cl)cc1)c1ccccc1C(=O)N(CCCn1ccnc1)C(C(=O)NCC(c1ccccc1)c1ccccc1)c1ccccc1 (stereo not drawn) [Compound 61] | 51 | 
11 | O=C(c1ccccc1)c1ccccc1C(=O)N(CCc1c[nH]cn1)C(C(=O)NCC(c1ccccc1)c1ccccc1)C(c1ccccc1)c1ccccc1 (stereo not drawn) [Compound 62] | 59 | 
12 | CN(C)CCCN(C(=O)c1ccccc1C(=O)c1ccccc1)C(C(=O)NC(C)(C)CC(C)(C)C)c1cccc(C#N)c1 (stereo not drawn) [Compound 63] | 55 | 
13 | N#Cc1cccc(C(C(=O)NC(Cc2ccccc2)c2ccccc2)N(CCc2c[nH]cn2)C(=O)c2ccccc2C(=O)c2ccc(Cl)cc2)c1 (stereo not drawn) [Compound 64] | 63 | 
14 | CCCCc1ccc(C(=O)N(CCc2c[nH]cn2)C(C(=O)NCCC(c2ccccc2)c2ccccc2)c2ccccc2)cc1 (stereo not drawn) [Compound 65] | 52 | 
15 | COc1cccc(C(=O)N(CCc2c[nH]cn2)C(C(=O)NCCC(c2ccccc2)c2ccccc2)c2cccc(C#N)c2)c1OC (stereo not drawn) [Compound 66] | 51 | 
16 | N#Cc1cccc(C(C(=O)NCCC(c2ccccc2)c2ccccc2)N(CCc2c[nH]cn2)C(=O)Cc2ccc3ccccc3c2)c1 (stereo not drawn) [Compound 67] | 52 | 
17 | N#Cc1cccc(C(C(=O)NCCC(c2ccccc2)c2ccccc2)N(CCc2c[nH]cn2)C(=O)c2cccc3ccccc23)c1 (stereo not drawn) [Compound 68] | 57 | 
18 | N#Cc1cccc(C(C(=O)NCCC(c2ccccc2)c2ccccc2)N(CCc2c[nH]cn2)C(=O)CCC2CCCCC2)c1 (stereo not drawn) [Compound 69] | 61 | 
19 | COc1cccc(C(=O)N(CCc2c[nH]cn2)C(C(=O)NCCC(c2ccccc2)c2ccccc2)c2cccc(C#N)c2)c1 (stereo not drawn) [Compound 70] | 58 | 
20 | COc1ccc(CCNC(=O)C(c2cccc(C#N)c2)N(CCc2c[nH]cn2)C(=O)c2cccn2C)cc1 (stereo not drawn) [Compound 71] | 57 | 
21 | COc1ccc(CCNC(=O)C(c2cccc(C#N)c2)N(CCc2c[nH]cn2)C(=O)CCC2CCCC2)cc1 (stereo not drawn) [Compound 72] | 57 | 

Row | Structure (SMILES) | inhibition at 1 µM (Mus musculus) [%] | other results
22 | COc1ccc(CCNC(=O)C(c2cccc(C#N)c2)N(CCc2c[nH]cn2)C(=O)CCC(C)=O)cc1 (stereo not drawn) [Compound 73] | 76 | 
23 | COc1ccc(CCNC(=O)C(c2cccc(C#N)c2)N(CCc2c[nH]cn2)C(=O)c2cnc3ccccc3n2)cc1 (stereo not drawn) [Compound 74] | 55 | 
24 | COc1ccc(CCNC(=O)C(c2cccc(C#N)c2)N(CCc2c[nH]cn2)C(=O)Cc2c(C)[nH]c3ccccc23)cc1 (stereo not drawn) [Compound 75] | 67 | 
25 | COc1ccc(CCNC(=O)C(c2cccc(C#N)c2)N(CCc2c[nH]cn2)C(=O)CCCc2c[nH]c3ccccc23)cc1 (stereo not drawn) [Compound 76] | 56 | 
26 | COc1ccc(CCNC(=O)C(c2cccc(C#N)c2)N(CCc2c[nH]cn2)C(=O)Cc2c[nH]c3ccccc23)cc1 (stereo not drawn) [Compound 77] | 54 | 
27 | COc1ccc(CCNC(=O)C(c2cccc(C#N)c2)N(CCc2c[nH]cn2)C(=O)Cc2c[nH]c3ccc(Br)cc23)cc1 (stereo not drawn) [Compound 78] | 60 | 
28 | COc1ccc(CCNC(=O)C(c2cccc(C#N)c2)N(CCc2c[nH]cn2)C(=O)c2cccc(Cl)c2)cc1 (stereo not drawn) [Compound 79] | 62 | 
29 | N#Cc1cccc(C(C(=O)NCC(c2ccccc2)c2ccccc2)N(CCc2c[nH]cn2)C(=O)c2cnc3ccccc3n2)c1 (stereo not drawn) [Compound 80] | 53 | 
30 | N#Cc1cccc(C(C(=O)NCC(c2ccccc2)c2ccccc2)N(CCc2c[nH]cn2)C(=O)c2c[nH]nc2N)c1 (stereo not drawn) [Compound 81] | 50 | 
31 | N#Cc1cccc(C(C(=O)NCC(c2ccccc2)c2ccccc2)N(CCc2c[nH]cn2)C(=O)C(O)Cc2c[nH]c3ccccc23)c1 (stereo not drawn) [Compound 82] | 55 | 
32 | N#Cc1cccc(C(C(=O)NCC(c2ccccc2)c2ccccc2)N(CCc2c[nH]cn2)C(=O)c2cccc(F)c2)c1 (stereo not drawn) [Compound 83] | 56 | 
33 | N#Cc1cccc(C(C(=O)NCC(c2ccccc2)c2ccccc2)N(CCc2c[nH]cn2)C(=O)CCCc2c[nH]c3ccccc23)c1 (stereo not drawn) [Compound 84] | 52 | 
34 | N#Cc1cccc(C(C(=O)NCC(c2ccccc2)c2ccccc2)N(CCc2c[nH]cn2)C(=O)Cc2c[nH]c3ccc(Br)cc23)c1 (stereo not drawn) [Compound 85] | 52 | 
35 | COc1cccc(C(=O)N(CCc2c[nH]cn2)C(C(=O)NCC(c2ccccc2)c2ccccc2)c2cccc(C#N)c2)c1 (stereo not drawn) [Compound 86] | 53 | 
36 | N#Cc1cccc(C(C(=O)NC(c2ccccc2)c2ccccc2)N(CCc2c[nH]cn2)C(=O)C(O)c2ccccc2)c1 (stereo not drawn) [Compound 87] | 50 | 
37 | N#Cc1cccc(C(C(=O)NC(c2ccccc2)c2ccccc2)N(CCc2c[nH]cn2)C(=O)c2ccccc2-c2ccccc2)c1 (stereo not drawn) [Compound 88] | 53 | 
38 | N#Cc1cccc(C(C(=O)NC(c2ccccc2)c2ccccc2)N(CCc2c[nH]cn2)C(=O)c2ccccc2Oc2ccccc2)c1 (stereo not drawn) [Compound 89] | 56 | 
39 | N#Cc1cccc(C(C(=O)NC(c2ccccc2)c2ccccc2)N(CCc2c[nH]cn2)C(=O)c2cccs2)c1 (stereo not drawn) [Compound 90] | 51 | 
40 | N#Cc1cccc(C(C(=O)NCCC(c2ccccc2)c2ccccc2)N(CCc2c[nH]cn2)C(=O)c2ccccc2C(=O)c2ccc(Cl)cc2)c1 (stereo not drawn) [Compound 91] | 71 | 
41 | COc1ccc(CCNC(=O)C(c2cccc(C#N)c2)N(CCc2c[nH]cn2)C(=O)C(C)C)cc1 (stereo not drawn) [Compound 92] | 52 | 
42 | Cc1nn(-c2nccc(-c3ccccn3)n2)c(C)c1Oc1ccc(C(C)C)cc1 [Compound 97, 2-[4-(4-Isopropyl-phenoxy)-3,5-dimethyl-pyrazol-1-yl]-4-pyridin-2-yl-pyrimidine] |  | IC50 (Mus musculus): 0.397 µM
